Laboratory results from patent US20230192617A1, “AZABICYCLIC(THIO)AMIDES AS FUNGICIDAL COMPOUNDS” (Bayer CropScience Aktiengesellschaft, priority 2020, published 2023).

Legend:
Pyrenophora teres = assay: B-10. Pyrenophora teres in vitro cell test; assay type: cell-based; conditions: 144 h, 20 ppm of active ingredient, 6 days incubation, liquid culture, absorbance, read-out: efficacy (inhibition of fungal growth)
Method: (§1) B-10. Pyrenophora teres In Vitro Cell Test [table] Fungicides were solubilized in DMSO and the solution used to prepare the required range of concentrations. The final concentration of DMSO used in the assay was ≤1%. A spore suspension of P. teres was prepared and diluted to the desired spore density. Fungicides were evaluated for their ability to inhibit spore germination and mycelium growth in liquid culture assay. The compounds were added in the desired concentration to the culture medium with spores. After 6 days incubation, fungi-toxicity of compounds was determined by spectrometric measurement of mycelium growth. Inhibition of fungal growth was determined by comparing the absorbance values in wells containing the fungicides with the absorbance in control wells without fungicides.

Alternaria brassicae = assay: In vivo preventive test on Alternaria brassicae (leaf spot on radish or cabbage); conditions: 500 ppm of active ingredient, preventive spray on radish or cabbage, evaluated 3 to 4 days after inoculation, read-out: efficacy
Method: B-1. In Vivo Preventive Test on Alternaria brassicae (Leaf Spot on Radish or Cabbage) [table] The active ingredients were made soluble and homogenized in a mixture of Dimethyl sulfoxide/Acetone/Tween® 80 and then diluted in water to the desired concentration. The young plants of radish or cabbage were treated by spraying the active ingredient prepared as described above. Control plants were treated only with an aqueous solution of Acetone/Dimethyl sulfoxide/Tween® 80. After 24 hours, the plants were contaminated by spraying the leaves with an aqueous suspension of Alternaria brassicae spores. The contaminated radish or cabbage plants were incubated for 3 to 4 days at 20° C. and at 100% relative humidity.

[1] = Measurement of Log P values by HPLC on reversed phase columns (EEC directive 79/831 Annex V.A8); assay type: physicochemical; conditions: method [a]: LC-UV, acidic range, 0.1% formic acid in water and acetonitrile as eluent; for chromatographic logP: reversed phase HPLC column
Method in brief: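 Log P derived from retention on reversed-phase columns (EEC directive 79/831 Annex V.A8), LC-UV, acetonitrile gradient 10% to 95% against water containing 0.1% formic acid, 0.001 M ammonium acetate, or 0.1% phosphoric acid; several values per method separated by "+".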

Botrytis cinerea [2] = assay: B-11. Botrytis cinerea in vitro cell test; assay type: cell-based; conditions: 144 h, 20 ppm of active ingredient, 6 days incubation, liquid culture, absorbance, read-out: efficacy (inhibition of fungal growth)
Method: as §1, with “B-11. Botrytis cinerea” for “B-10. Pyrenophora teres”, “B. cinerea” for “P. teres”

Alternaria alternata = Alternaria alternata in vitro cell test; assay type: cell-based; conditions: 120 h, 20 ppm of active ingredient, liquid culture, 5 days incubation, spectrometric measurement of mycelium growth, read-out: efficacy (inhibition of fungal growth)
Method: as §1, with “B-6. Alternaria alternata” for “B-10. Pyrenophora teres”, “A. alternata” for “P. teres”, “5” for “6”

Botrytis cinerea [3] = assay: In vivo preventive test on Botrytis cinerea (grey mould); conditions: 500 ppm of active ingredient, preventive spray on gherkin or cabbage, evaluated 4 to 5 days after inoculation, read-out: efficacy
Method: (§2) B-2. In Vivo Preventive Test on Botrytis cinerea (Grey Mould) [table] The active ingredients were made soluble and homogenized in a mixture of Dimethyl sulfoxide/Acetone/Tween® 80 and then diluted in water to the desired concentration. The young plants of gherkin or cabbage were treated by spraying the active ingredient prepared as described above. Control plants were treated only with an aqueous solution of Acetone/Dimethyl sulfoxide/Tween® 80. After 24 hours, the plants were contaminated by spraying the leaves with an aqueous suspension of Botrytis cinerea spores. The contaminated gherkin plants were incubated for 4 to 5 days at 17° C. and at 90% relative humidity. The contaminated cabbage plants were incubated for 4 to 5 days at 20° C. and at 100% relative humidity.

[4] = tested on: Colletotrichum lindemuthianum; assay: B-8. Colletotrichum lindemuthianum in vitro cell test; assay type: cell-based; conditions: 144 h, 20 ppm of active ingredient, 6 days incubation, liquid culture, absorbance, read-out: efficacy (inhibition of fungal growth)
Method in brief: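 Liquid-culture germination/growth test: compounds in ≤1% final DMSO were added to spore-containing medium. Fungal growth was quantified spectrophotometrically after 6 days of incubation and expressed as inhibition versus untreated controls.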

Sphaerotheca fuliginea = assay: In vivo preventive test on Sphaerotheca fuliginea (powdery mildew on cucurbits); conditions: Podosphaera fuliginea, 192 h; 500 ppm of active ingredient; preventive spray on gherkin; evaluated 8 days after inoculation; read-out: efficacy
Method: as §2, with “B-4. in vivo preventive test” for “B-2. In Vivo Preventive Test”, “Sphaerotheca fuliginea (powdery mildew on cucurbits)” for “Botrytis cinerea (Grey Mould)”, “gherkin” for “gherkin or cabbage”, “Sphaerotheca fuliginea” for “Botrytis cinerea”, “8” for “4 to 5 days at 17° C. and at 90% relative humidity. The contaminated cabbage plants were incubated for 4 to 5”, “70-80%” for “100%”

| SMILES | inhibition at 20 ppm (Pyrenophora teres) [%] | pest or weed control at 500 ppm (Alternaria brassicae) [%] | chromatographic logP [1] | inhibition at 20 ppm (Botrytis cinerea [2]) [%] | inhibition at 20 ppm (Alternaria alternata) [%] | pest or weed control at 500 ppm (Botrytis cinerea [3]) [%] | inhibition at 20 ppm [4] [%] | pest or weed control at 500 ppm (Sphaerotheca fuliginea) [%] | LogP [1] |
| --- | --- | --- | --- | --- | --- | --- | --- | --- | --- |
| O=C(NCCc1ccc2c(c1)OCO2)c1c(Oc2cccc(C(F)(F)F)c2)nnc2ccccc12 [I-092] | 90 to 100 | 90 to 100 | 3.45 | 90 to 100 | 90 to 100 | 90 to 100 | 90 to 100 |  |  |
| Cc1scc(CCNC(=O)c2c(Oc3cccc(C(F)(F)F)c3)nnc3ccccc23)c1C [I-093] | 90 to 100 | 90 to 100 | 4.11 | 90 to 100 | 70 to 79 | 90 to 100 | 90 to 100 |  |  |
| Cc1cccc2c1OCC[C@@H]2NC(=O)c1c(Oc2cccc(C(F)(F)F)c2)nnc2ccccc12 (racemic) [I-082] | 90 to 100 | 90 to 100 | 4.07 | 90 to 100 | 90 to 100 | 90 to 100 | 90 to 100 |  |  |
| Cc1ccc(C(F)(F)CNC(=O)c2c(Oc3cccc(C(F)(F)F)c3)cnc3ccccc23)c(C)c1 [I-039, N-[2-(2,4-dimethylphenyl)-2,2-difluoro-ethyl]-3-[3-(trifluoro-methyl)phenoxy]quinoline-4-carboxamide] |  |  | 4.46 |  | 90 to 100 | 90 to 100 | 90 to 100 | 90 to 100 |  |
| CC(=O)c1ccc(C(F)(F)CNC(=O)c2c(Oc3cccc(C(F)(F)F)c3)nnc3ccccc23)c(Cl)c1 [I-069] | 90 to 100 | 90 to 100 | 3.84 | 90 to 100 | 80 to 89 | 90 to 100 | 70 to 79 |  |  |
| CC(C)Oc1ccc(CCNC(=O)c2c(Oc3cccc(C(F)(F)F)c3)nnc3ccccc23)cn1 [I-087] | 90 to 100 | 80 to 89 | 3.63 | 90 to 100 | 90 to 100 |  | 90 to 100 |  |  |
| COCc1ccc(C(F)(F)CNC(=O)c2c(Oc3cccc(C(F)(F)F)c3)nnc3ccccc23)c(Cl)c1 [I-074] | 90 to 100 | 90 to 100 | 4.12 | 90 to 100 | 90 to 100 | 90 to 100 | 90 to 100 |  |  |
| O=C(NCCOc1ccc(Cl)cc1)c1c(Oc2cccc(C(F)(F)F)c2)nnc2ccccc12 [I-085] | 90 to 100 | 90 to 100 | 3.94 | 90 to 100 | 90 to 100 |  | 80 to 89 |  |  |
| COc1ccc2c(c1)[C@@H](NC(=O)c1c(Oc3cccc(C(F)(F)F)c3)nnc3ccccc13)[C@@H](OC)CC2 (mixture of isomers) [I-180] | 90 to 100 | 90 to 100 | 3.78 | 90 to 100 |  | 80 to 89 | 90 to 100 |  | 4.02 |
| Cc1ccc2c(c1)[C@@H](NC(=O)c1c(Oc3cccc(C(F)(F)F)c3)nnc3ccccc13)COC2 (racemic) [I-083] | 90 to 100 | 90 to 100 | 3.73 | 90 to 100 | 80 to 89 | 90 to 100 | 90 to 100 |  |  |
| COc1ccc(CCN(C(C)=O)C(=O)c2c(Oc3cccc(C(F)(F)F)c3)nnc3ccccc23)cc1 [I-090] | 90 to 100 | 90 to 100 | 4.32 | 90 to 100 |  | 90 to 100 | 80 to 89 |  |  |
| C[C@H](NC(=O)c1c(Oc2cncc(C(F)(F)F)c2)nnc2ccccc12)c1cccc(C(F)(F)F)c1 (racemic) [I-028] |  |  | 3.57 |  |  | 90 to 100 | 80 to 89 | 90 to 100 |  |
| Cn1cc(-c2ccc(C(F)(F)CNC(=O)c3c(Oc4cccc(C(F)(F)F)c4)nnc4ccccc34)c(Cl)c2)cn1 [I-065] | 90 to 100 | 90 to 100 | 3.71 | 90 to 100 | 70 to 79 | 90 to 100 |  |  |  |
| Cc1ccc(C(F)(F)CNC(=O)c2c(Oc3cccc(Cl)c3F)cnc3nccnc23)c(C)c1 [I-100] | 90 to 100 | 90 to 100 | 3.38 | 90 to 100 | 90 to 100 | 90 to 100 | 90 to 100 |  |  |
| Cc1ccc(C(F)(F)CNC(=S)c2c(Oc3cccc(C(F)(F)F)c3)cnc3ccccc23)c(C)c1 [I-159] |  |  | 5.17 |  |  |  | 70 to 79 | 90 to 100 |  |
| O=C(NCCc1cccs1)c1c(Oc2cccc(C(F)(F)F)c2)nnc2ccccc12 [I-237] | 90 to 100 | 90 to 100 | 3.53 | 90 to 100 | 90 to 100 | 70 to 79 | 80 to 89 |  |  |
| O=C(NCC(F)(F)c1ccccc1Cl)c1c(Oc2cccc(C(F)(F)F)c2)nnc2ccccc12 [I-214] | 90 to 100 | 90 to 100 | 4.12 | 90 to 100 | 90 to 100 | 90 to 100 | 90 to 100 |  |  |
| Cc1ccc(C(F)(F)CNC(=O)c2c(Oc3cccc(C(F)(F)F)c3)nnc3cc(C)ccc23)c(C)c1 [I-044] |  | 90 to 100 | 4.45 |  | 90 to 100 |  | 90 to 100 | 80 to 89 |  |
| O=C(NCCn1cc(Cl)cn1)c1c(Oc2cccc(C(F)(F)F)c2)nnc2ccccc12 [I-244] | 90 to 100 | 90 to 100 | 3 | 90 to 100 | 90 to 100 | 80 to 89 | 90 to 100 |  |  |
| C[C@@H]1CC[C@H](NC(=O)c2c(Oc3cccc(C(F)(F)F)c3)nnc3ccccc23)c2ccccc21 (mixture of isomers) [I-079] | 90 to 100 | 90 to 100 | 4.42 | 90 to 100 |  | 90 to 100 | 90 to 100 |  |  |
